According to patent publication US8959984B2, “Proteome-wide quantification of small molecule binding to cellular target proteins” (priority 2007, dated 2015):
Several values for one entry are separate records, joined by “and”; a condition that tells them apart may be missing. Identical values can stand only once.

Columns and labels:
Assay in all cases: binding to AX14596 beads (HeLa lysate, SILAC MS)
[1] = target: T1, CDA (Homo sapiens, UniProt P32320)
T1 construct: endogenous in cells; host or cells: HeLa S3
T1 sequence (P32320 whole entry): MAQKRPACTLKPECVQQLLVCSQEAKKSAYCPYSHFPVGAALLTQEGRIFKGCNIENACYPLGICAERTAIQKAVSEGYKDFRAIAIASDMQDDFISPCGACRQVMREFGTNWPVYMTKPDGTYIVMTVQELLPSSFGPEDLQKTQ

[2] = target: CaMK2g (CAMK2G) (Homo sapiens, UniProt Q13555)
CaMK2g (CAMK2G), sequence (Q13555 whole entry): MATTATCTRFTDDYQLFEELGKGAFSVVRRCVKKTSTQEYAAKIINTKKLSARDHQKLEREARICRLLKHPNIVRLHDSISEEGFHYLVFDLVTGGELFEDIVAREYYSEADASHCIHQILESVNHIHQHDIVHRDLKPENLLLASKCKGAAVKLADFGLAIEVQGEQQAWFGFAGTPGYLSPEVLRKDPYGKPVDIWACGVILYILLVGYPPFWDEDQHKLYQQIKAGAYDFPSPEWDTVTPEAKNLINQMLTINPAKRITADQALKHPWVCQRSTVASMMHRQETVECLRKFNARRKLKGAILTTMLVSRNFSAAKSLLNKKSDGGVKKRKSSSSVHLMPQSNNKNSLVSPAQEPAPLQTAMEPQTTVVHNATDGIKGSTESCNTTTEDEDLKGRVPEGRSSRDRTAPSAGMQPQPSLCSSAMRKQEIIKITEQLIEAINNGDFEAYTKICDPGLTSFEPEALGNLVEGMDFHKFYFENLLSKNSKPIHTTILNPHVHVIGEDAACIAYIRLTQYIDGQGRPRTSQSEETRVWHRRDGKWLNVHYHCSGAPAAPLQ

[3] = target: T2, EGFR (Homo sapiens, UniProt P00533)
T2 construct: endogenous in cells; host or cells: HeLa S3
T2 sequence (P00533 25-1210): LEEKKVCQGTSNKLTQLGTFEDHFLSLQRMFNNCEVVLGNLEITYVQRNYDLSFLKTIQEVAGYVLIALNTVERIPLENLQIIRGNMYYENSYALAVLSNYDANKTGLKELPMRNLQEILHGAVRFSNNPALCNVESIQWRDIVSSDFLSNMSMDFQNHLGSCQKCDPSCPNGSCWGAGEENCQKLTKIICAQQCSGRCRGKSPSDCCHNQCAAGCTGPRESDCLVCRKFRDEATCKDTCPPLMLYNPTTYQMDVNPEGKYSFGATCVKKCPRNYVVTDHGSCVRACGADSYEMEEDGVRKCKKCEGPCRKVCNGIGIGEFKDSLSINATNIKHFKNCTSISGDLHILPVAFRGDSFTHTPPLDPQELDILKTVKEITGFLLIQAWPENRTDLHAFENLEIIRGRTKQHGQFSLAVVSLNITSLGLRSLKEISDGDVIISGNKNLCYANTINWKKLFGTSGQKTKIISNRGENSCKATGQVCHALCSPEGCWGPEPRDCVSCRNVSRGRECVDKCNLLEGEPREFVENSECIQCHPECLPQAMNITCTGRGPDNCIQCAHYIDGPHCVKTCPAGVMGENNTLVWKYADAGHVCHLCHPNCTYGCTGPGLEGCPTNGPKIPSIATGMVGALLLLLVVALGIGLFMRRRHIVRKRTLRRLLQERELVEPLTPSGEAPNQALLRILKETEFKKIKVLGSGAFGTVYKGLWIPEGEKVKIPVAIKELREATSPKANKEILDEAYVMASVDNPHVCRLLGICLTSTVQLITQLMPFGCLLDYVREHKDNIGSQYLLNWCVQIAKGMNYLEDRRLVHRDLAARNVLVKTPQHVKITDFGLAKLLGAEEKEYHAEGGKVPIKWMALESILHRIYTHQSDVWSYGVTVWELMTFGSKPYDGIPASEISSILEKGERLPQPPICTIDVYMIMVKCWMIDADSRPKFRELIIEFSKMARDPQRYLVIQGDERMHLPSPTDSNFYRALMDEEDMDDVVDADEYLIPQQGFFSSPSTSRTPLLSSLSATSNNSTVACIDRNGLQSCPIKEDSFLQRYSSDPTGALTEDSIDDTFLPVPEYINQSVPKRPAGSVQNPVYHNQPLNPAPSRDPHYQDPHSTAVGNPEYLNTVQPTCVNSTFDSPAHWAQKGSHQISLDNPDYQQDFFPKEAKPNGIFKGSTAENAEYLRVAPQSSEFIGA

[4] = target: T3, EphB2 (Homo sapiens, UniProt P29323)
T3 sequence (P29323 19-1055): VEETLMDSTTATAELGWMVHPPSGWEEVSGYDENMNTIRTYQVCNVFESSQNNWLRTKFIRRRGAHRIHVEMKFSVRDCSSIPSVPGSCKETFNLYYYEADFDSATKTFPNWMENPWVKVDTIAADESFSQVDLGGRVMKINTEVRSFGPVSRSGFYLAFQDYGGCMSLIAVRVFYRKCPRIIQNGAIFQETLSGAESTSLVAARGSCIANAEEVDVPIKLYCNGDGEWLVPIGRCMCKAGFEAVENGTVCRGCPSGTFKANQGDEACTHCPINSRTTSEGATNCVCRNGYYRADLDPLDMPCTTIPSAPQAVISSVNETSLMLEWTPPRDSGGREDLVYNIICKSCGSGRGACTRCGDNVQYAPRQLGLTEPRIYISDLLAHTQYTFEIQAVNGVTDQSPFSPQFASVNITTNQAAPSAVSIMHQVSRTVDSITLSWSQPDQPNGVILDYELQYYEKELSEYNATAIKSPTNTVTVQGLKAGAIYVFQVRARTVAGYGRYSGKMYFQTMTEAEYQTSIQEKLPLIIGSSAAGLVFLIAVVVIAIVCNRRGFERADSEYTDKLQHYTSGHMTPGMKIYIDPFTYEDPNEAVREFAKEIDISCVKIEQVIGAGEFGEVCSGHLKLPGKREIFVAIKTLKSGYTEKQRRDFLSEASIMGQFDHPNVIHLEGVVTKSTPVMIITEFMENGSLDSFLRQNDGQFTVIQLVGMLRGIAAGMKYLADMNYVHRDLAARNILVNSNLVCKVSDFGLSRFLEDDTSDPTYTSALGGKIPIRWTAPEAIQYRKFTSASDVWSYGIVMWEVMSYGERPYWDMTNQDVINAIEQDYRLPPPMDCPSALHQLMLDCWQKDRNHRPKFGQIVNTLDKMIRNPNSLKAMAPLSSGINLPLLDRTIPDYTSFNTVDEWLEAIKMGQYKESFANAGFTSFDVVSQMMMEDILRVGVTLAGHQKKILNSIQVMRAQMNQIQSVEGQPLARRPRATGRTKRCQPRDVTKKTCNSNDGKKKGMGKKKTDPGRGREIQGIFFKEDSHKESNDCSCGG

[5] = target: JNK2 (MAPK9) (Homo sapiens, UniProt P45984)
JNK2 (MAPK9), sequence (P45984 whole entry): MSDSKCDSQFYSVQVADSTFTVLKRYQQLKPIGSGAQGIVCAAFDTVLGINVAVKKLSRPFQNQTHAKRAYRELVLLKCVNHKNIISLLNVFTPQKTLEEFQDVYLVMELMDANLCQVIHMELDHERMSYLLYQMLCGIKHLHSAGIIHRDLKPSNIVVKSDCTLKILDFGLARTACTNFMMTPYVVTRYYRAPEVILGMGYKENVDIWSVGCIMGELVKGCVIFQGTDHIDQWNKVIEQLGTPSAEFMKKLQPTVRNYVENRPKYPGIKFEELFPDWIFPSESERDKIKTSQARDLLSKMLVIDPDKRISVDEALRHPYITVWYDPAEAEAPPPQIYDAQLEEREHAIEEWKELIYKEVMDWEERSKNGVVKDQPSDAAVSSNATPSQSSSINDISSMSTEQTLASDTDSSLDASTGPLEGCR

[6] = target: PKD2 (PRKD2) (Homo sapiens, UniProt Q9BZL6)
PKD2 (PRKD2), sequence (Q9BZL6 whole entry): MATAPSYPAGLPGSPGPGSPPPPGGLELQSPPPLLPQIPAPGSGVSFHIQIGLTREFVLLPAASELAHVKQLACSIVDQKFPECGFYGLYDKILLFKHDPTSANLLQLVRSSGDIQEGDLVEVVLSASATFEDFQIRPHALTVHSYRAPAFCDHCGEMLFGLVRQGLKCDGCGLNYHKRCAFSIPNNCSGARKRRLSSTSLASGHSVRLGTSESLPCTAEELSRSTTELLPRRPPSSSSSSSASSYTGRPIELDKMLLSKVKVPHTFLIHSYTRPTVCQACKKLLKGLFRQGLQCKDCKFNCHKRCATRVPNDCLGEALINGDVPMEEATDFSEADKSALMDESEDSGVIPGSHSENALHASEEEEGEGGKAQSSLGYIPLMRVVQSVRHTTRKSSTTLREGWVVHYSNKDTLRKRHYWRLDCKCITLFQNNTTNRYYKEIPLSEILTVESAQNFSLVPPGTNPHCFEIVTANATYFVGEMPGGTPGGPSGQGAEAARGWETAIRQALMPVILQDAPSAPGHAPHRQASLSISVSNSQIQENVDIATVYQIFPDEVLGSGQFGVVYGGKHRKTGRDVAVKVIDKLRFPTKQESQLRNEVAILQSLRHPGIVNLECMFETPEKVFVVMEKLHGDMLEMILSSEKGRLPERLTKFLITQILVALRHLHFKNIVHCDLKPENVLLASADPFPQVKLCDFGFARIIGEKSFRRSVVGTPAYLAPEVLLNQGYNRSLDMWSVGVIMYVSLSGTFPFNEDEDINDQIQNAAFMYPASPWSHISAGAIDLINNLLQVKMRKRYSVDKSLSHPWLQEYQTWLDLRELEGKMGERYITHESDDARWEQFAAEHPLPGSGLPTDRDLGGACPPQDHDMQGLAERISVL

SMILES: COc1cc2ncnc(Nc3ccc(F)c(Cl)c3)c2cc1OCCCN [AX14596]
- Ki [1]: 402 µM
- r (3 mg/1 mg lysate) [1]: 3.09
- rAVERAGE (2. inc/1. inc) [1]: 0.80
- rAVERAGE (control/1. inc) [1]: 0.09
- Ki [2]: 93.4 µM
- r (3 mg/1 mg lysate) [2]: 2.45
- r (5 h/2.5 h inc. time) [2]: 1.17
- rAVERAGE (2. inc/1. inc) [2]: 0.48
- rAVERAGE (control/1. inc) [2]: 0.04
- Ki [3]: 44 µM and 44.5 µM
- r (3 mg/1 mg lysate) [3]: 2.65
- r (5 h/2.5 h inc. time) [3]: 0.90
- rAVERAGE (2. inc/1. inc) [3]: 0.31
- rAVERAGE (control/1. inc) [3]: 0.03
- % BOUND ([3]; bound to AX14596 beads): 69%
- Ki [4]: 213 µM
- r (3 mg/1 mg lysate) [4]: 3.41
- r (5 h/2.5 h inc. time) [4]: 1.06
- rAVERAGE (2. inc/1. inc) [4]: 0.68
- rAVERAGE (control/1. inc) [4]: 0.04
- Ki [5]: 110 µM
- r (3 mg/1 mg lysate) [5]: 2.58
- r (5 h/2.5 h inc. time) [5]: 0.95
- rAVERAGE (2. inc/1. inc) [5]: 0.52
- rAVERAGE (control/1. inc) [5]: 0.03
- % BOUND ([5]; bound to AX14596 beads): 48%
- Ki [6]: 385 µM
- r (3 mg/1 mg lysate) [6]: 2.53
- r (5 h/2.5 h inc. time) [6]: 0.96
- rAVERAGE (2. inc/1. inc) [6]: 0.79
- rAVERAGE (control/1. inc) [6]: 0.08
